pIC50: −log10 of the molar value.
Molecular target: T1, human Nav1.3 channels (Homo sapiens, UniProt Q9NY46)
T1 construct: expressed in transfected cells; host or cells: HEK293
Experiment: FRET assay, human Nav1.3 (EFS on FDSS)
Assay type: cell-based
Conditions: HEK293 cells expressing human Nav1.3, read-out: IC50 against Nav1.3
Description: The inhibitory activities of compounds against voltage gated sodium channels are determined by methodology well known in the art.
The ability of the aryl substituted carboxamide derivatives of the formula (I) to inhibit the NaV1.3, Nav1.7 and Nav1.5 channels is measured by Fluorescence Resonance Energy Transfer (FRET) assay and electrophysiology assay described below.
This screen is used to determine the effects of compounds on human Nav1.3, human Nav1.7, and human Nav1.5 channels, utilising electrical field stimulation (EFS) system in 96-well plate format on FDSS (Hamamatsu Photonics) platform. The change of membrane potential is monitored with FRET dye pair, oxonol (DiSBAC2(3)) and coumarin (CC2-DMPE).
Each HEK293 cells expressing human Nav1.3 channels and HEK293 cells expressing human Nav1.5 channels are grown in T225 flasks, in a 5% CO2 humidified incubator to about 80% confluence. Media composition consists of Dulbecco's Modified Eagle Medium (high glucose), 10% FCS, 100 units/mL Penicillin, 100 microgram/mL Streptomycin and 500 microgram/mL Geneticine.
Protocol: • Seed each cell lines (1×10^5 cells/well) into poly-D-lysine coated 96-well plates prior to experimentation. • Incubate at 37° C. in 5% CO2 for 24 hours. • Wash each well with assay buffer (140 mM NaCl, 4.5 mM KCl, 10 mM D-Glucose, 2 mM CaCl2, 1 mM MgCl2, 10 mM HEPES, pH 7.4 adjusted with NaOH) twice. • Add 1st loading solution containing 10 microM CC2-DMPE and 0.06% Pluronic F-127 in assay buffer. • Incubate the plate at room temperature in dark for 1 hour. • Remove 1st loading solution and added 2nd loading solution containing 15 microM DiSBAC2(3), 0.555 mM VABSC-1 and 0.004% Pluronic F-127 in assay buffer. • Place the plate under the dark at room temperature for 25 minutes. • Add compound solutions into the assay plate. • Set the assay plate in FDSS and placed an EFS device on the plate. • Measure EFS-induced fluorescent response by FDSS.
The data are analyzed and reported as normalized ratios of intensities measured at […]. The process of calculating these ratios is performed as follows:
This analysis is performed using a computerized specific program designed for FDSS generated data. Fluorescence ratio values are plotted using XLfit to determine an IC50 value for each compound.

T1 sequence (Q9NY46 whole entry): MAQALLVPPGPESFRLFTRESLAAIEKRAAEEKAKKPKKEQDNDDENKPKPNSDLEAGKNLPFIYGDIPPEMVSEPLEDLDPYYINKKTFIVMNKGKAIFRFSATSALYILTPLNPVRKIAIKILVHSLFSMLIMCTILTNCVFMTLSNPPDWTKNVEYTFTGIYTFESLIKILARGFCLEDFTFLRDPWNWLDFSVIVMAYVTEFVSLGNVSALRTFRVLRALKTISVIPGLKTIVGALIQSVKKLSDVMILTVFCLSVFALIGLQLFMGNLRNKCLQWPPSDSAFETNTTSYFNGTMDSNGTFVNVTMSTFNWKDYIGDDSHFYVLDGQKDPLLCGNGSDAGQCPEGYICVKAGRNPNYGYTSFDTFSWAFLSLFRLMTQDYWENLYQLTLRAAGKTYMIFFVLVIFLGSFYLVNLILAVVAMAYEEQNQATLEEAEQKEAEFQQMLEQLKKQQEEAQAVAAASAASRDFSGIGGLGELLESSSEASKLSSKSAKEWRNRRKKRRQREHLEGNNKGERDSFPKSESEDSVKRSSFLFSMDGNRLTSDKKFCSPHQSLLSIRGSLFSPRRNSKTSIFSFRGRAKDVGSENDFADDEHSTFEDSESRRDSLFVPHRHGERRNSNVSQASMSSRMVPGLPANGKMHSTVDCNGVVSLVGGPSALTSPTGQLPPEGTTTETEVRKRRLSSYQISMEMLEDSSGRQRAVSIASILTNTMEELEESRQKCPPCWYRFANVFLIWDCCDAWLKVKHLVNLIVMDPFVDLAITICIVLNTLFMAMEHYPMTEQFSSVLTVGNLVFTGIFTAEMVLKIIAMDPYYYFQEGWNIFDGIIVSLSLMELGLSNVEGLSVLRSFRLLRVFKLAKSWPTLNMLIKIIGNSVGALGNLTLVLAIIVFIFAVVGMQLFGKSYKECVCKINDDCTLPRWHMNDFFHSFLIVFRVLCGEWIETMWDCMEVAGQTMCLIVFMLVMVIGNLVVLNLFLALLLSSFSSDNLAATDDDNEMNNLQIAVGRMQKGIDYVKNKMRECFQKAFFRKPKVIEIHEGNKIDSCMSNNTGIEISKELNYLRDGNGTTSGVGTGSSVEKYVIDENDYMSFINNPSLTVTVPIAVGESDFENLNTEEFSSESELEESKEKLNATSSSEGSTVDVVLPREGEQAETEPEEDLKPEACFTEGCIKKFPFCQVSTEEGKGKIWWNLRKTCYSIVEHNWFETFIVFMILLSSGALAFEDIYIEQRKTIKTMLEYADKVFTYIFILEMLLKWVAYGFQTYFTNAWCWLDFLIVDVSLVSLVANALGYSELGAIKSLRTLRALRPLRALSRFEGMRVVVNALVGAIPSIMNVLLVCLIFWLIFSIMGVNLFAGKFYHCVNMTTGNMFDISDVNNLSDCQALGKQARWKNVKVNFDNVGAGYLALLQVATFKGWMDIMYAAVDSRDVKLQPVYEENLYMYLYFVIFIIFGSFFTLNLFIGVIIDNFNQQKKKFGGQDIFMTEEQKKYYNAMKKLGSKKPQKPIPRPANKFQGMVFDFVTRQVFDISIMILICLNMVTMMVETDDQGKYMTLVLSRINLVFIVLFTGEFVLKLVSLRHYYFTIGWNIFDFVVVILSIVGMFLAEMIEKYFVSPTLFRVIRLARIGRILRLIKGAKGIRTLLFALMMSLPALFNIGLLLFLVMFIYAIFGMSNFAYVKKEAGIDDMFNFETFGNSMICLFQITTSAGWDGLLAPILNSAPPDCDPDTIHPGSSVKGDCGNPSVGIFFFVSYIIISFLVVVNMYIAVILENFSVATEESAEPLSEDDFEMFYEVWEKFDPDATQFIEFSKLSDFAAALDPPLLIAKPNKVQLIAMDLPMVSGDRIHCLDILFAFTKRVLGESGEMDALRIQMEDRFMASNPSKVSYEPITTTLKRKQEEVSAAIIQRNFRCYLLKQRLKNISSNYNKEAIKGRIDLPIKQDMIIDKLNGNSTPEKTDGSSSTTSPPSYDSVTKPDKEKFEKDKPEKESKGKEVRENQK

Row | Structure (SMILES) | pIC50
1 | CCC(=O)Nc1cc(C(=O)NCc2cnc(OCC(F)(F)F)c(CC)c2)ccn1 [Example 710, N-((5-ethyl-6-(2,2,2-trifluoroethoxy)pyridin-3-yl)methyl)-2-propionamidoisonicotinamide] | > 6.00
2 | CCC(=O)Nc1cc(C(=O)NCc2cc(C)cc(OC(F)(F)F)c2)ccn1 [Example 598, N-(3-methyl-5-(trifluoromethoxy)benzyl)-2-propionamidoisonicotinamide] | > 6.00
3 | Cc1cc(C(=O)NC(C)c2ccc(OCC(F)F)c(Cl)c2)nc(NC(=O)C2CC2)n1 (single isomer, unassigned) [Example 984, N-(1-(3-chloro-4-(2,2-difluoroethoxy)phenyl)ethyl)-2-(cyclopropanecarboxamido)-6-methylpyrimidine-4-carboxamide] | > 6.00
4 | CC(C)C(=O)Nc1cc(C(=O)NCc2cccc(OC(F)(F)F)c2F)ccn1 [Example 750, N-(2-fluoro-3-(trifluoromethoxy)benzyl)-2-isobutyramidoisonicotinamide] | > 6.00
5 | Cc1cc(C(C)NC(=O)c2ccc3cccc(O)c3n2)cnc1OCC(F)(F)F (single isomer, unassigned) [Example 535, 8-hydroxy-N-(1-(5-methyl-6-(2,2,2-trifluoroethoxy)pyridin-3-yl)ethyl)quinoline-2-carboxamide] | > 6.00
6 | COCCNc1nc(C)cc(C(=O)NC(C)c2cnc(OCC(F)(F)F)c(C)c2)n1 (single isomer, unassigned) [Example 475, 2-((2-methoxyethyl)amino)-6-methyl-N-(1-(5-methyl-6-(2,2,2-trifluoroethoxy)pyridin-3-yl)ethyl)pyrimidine-4-carboxamide] | > 6.00
7 | CC(C)C(=O)Nc1cc(C(=O)NCc2cccc(OCC(F)(F)F)n2)ccn1 [Example 468, 2-isobutyramido-N-((6-(2,2,2-trifluoroethoxy)pyridin-2-yl)methyl)isonicotinamide] | > 6.00
8 | CCC(=O)Nc1cc(C(=O)NCc2ccc(OC(F)(F)F)c(Cl)c2)ccn1 [Example 968, N-(3-chloro-4-(trifluoromethoxy)benzyl)-2-propionamidoisonicotinamide] | > 6.00
9 | CC(=O)Nc1cc(C(=O)NCc2cnc(OCC(F)(F)F)c(Cl)c2)ccn1 [Example 93, 2-acetamido-N-((5-chloro-6-(2,2,2-trifluoroethoxy)pyridin-3-yl)methyl)isonicotinamide] | > 6.00
10 | CC(=O)Nc1cc(C(=O)NCc2cccc(OCC(F)(F)F)n2)cc(C)n1 [Example 466, 2-acetamido-6-methyl-N-((6-(2,2,2-trifluoroethoxy)pyridin-2-yl)methyl)isonicotinamide] | > 6.00
11 | Cc1cc(CNC(=O)c2ccnc(NC(=O)C3CC3)n2)ccc1OCC(F)(F)F [Example 779, 2-(cyclopropanecarboxamido)-N-(3-methyl-4-(2,2,2-trifluoroethoxy)benzyl)pyrimidine-4-carboxamide] | > 6.00
12 | CC(=O)Nc1cc(C(=O)NCc2cc(C(F)(F)F)ccc2F)cc(C)n1 [Example 574, 2-acetamido-N-(2-fluoro-5-(trifluoromethyl)benzyl)-6-methylisonicotinamide] | > 6.00
13 | CCc1cc(CNC(=O)c2ccnc(NC(C)=O)c2)cnc1OCC(F)(F)F [Example 709, 2-acetamido-N-((5-ethyl-6-(2,2,2-trifluoroethoxy)pyridin-3-yl)methyl)isonicotinamide] | > 6.00

Other lines, results leading:

Row | pIC50 | Structure (SMILES)
14 | > 6.00 | Cc1cc(CNC(=O)c2cc(C)nc(NC(=O)C(C)C)c2)nc(OCC(F)(F)F)c1 [Example 577, 2-isobutyramido-6-methyl-N-((4-methyl-6-(2,2,2-trifluoroethoxy)pyridin-2-yl)methyl)isonicotinamide]
15 | > 6.00 | CCC(=O)Nc1cc(C(=O)NCc2ccc(OCC(F)(F)F)nc2)ccn1 [Example 151, 2-propionamido-N-((6-(2,2,2-trifluoroethoxy)pyridin-3-yl)methyl)isonicotinamide]
16 | > 6.00 | Cc1cc(C(=O)NCc2cnc(OCC(F)(F)F)cc2C)cc(NC(=O)CC2CC2)n1 [Example 958, 2-(2-cyclopropylacetamido)-6-methyl-N-((4-methyl-6-(2,2,2-trifluoroethoxy)pyridin-3-yl)methyl)isonicotinamide]
17 | > 6.00 | CC(=O)Nc1cc(C(=O)NCc2cnc(OCC(F)F)c(C)c2)cc(C)n1 [Example 742, 2-acetamido-N-((6-(2,2-difluoroethoxy)-5-methylpyridin-3-yl)methyl)-6-methylisonicotinamide]
18 | > 6.00 | CCC(=O)Nc1cc(C(=O)NCc2cccc(OCC(F)(F)F)n2)ccn1 [Example 464, 2-propionamido-N-((6-(2,2,2-trifluoroethoxy)pyridin-2-yl)methyl)isonicotinamide]
19 | > 6.00 | CCCC(=O)Nc1cc(C(=O)NCc2cccc(OCC(F)(F)F)n2)ccn1 [Example 469, 2-butyramido-N-((6-(2,2,2-trifluoroethoxy)pyridin-2-yl)methyl)isonicotinamide]
20 | > 6.00 | Cc1cc(C(=O)NCc2cnc(OCC(F)(F)F)cc2C)cc(NC(=O)C(C)C)n1 [Example 516, 2-isobutyramido-6-methyl-N-((4-methyl-6-(2,2,2-trifluoroethoxy)pyridin-3-yl)methyl)isonicotinamide]
21 | > 6.00 | O=C(NCc1cnc(OCC(F)F)c(C2CC2)c1)c1ccnc(NC(=O)C2CC2)n1 [Example 918, 2-(cyclopropanecarboxamido)-N-((5-cyclopropyl-6-(2,2-difluoroethoxy)pyridin-3-yl)methyl)pyrimidine-4-carboxamide]
22 | > 6.00 | CCc1cc(CNC(=O)c2ccnc(NC(=O)C3CC3)n2)cnc1OCC(F)(F)F [Example 717, 2-(cyclopropanecarboxamido)-N-((5-ethyl-6-(2,2,2-trifluoroethoxy)pyridin-3-yl)methyl)pyrimidine-4-carboxamide]
23 | > 6.00 | Cc1cc(C(=O)NCc2cccc(C(F)(F)F)c2)cc(NC(=O)CC2CC2)n1 [Example 961, 2-(2-cyclopropylacetamido)-6-methyl-N-(3-(trifluoromethyl)benzyl)isonicotinamide]
24 | > 6.00 | Cc1cc(C(=O)NCc2cccc(OC(F)(F)F)c2F)cc(NC(=O)C(C)C)n1 [Example 752, N-(2-fluoro-3-(trifluoromethoxy)benzyl)-2-isobutyramido-6-methylisonicotinamide]
25 | > 6.00 | CCC(=O)Nc1cc(C(=O)NCc2cc(C(F)(F)F)ccc2F)ccn1 [Example 572, N-(2-fluoro-5-(trifluoromethyl)benzyl)-2-propionamidoisonicotinamide]
26 | > 6.00 | CCC(=O)Nc1cc(C(=O)NCc2cnc(OCC(F)F)c(C)c2)ccn1 [Example 738, N-((6-(2,2-difluoroethoxy)-5-methylpyridin-3-yl)methyl)-2-propionamidoisonicotinamide]
27 | > 6.00 | Cc1cc(CNC(=O)c2ccnc(NC(=O)C3CC3)c2)nc(OCC(F)(F)F)c1 [Example 578, 2-(cyclopropanecarboxamido)-N-((4-methyl-6-(2,2,2-trifluoroethoxy)pyridin-2-yl)methyl)isonicotinamide]
28 | > 6.00 | C=C(C)C(=O)Nc1cc(C(=O)NC(C)c2ccc(OCC(F)(F)F)nc2)cc(C)n1 (single isomer, unassigned) [Example 571, 2-methacrylamido-6-methyl-N-(1-(6-(2,2,2-trifluoroethoxy)pyridin-3-yl)ethyl)isonicotinamide]
29 | > 6.00 | Cc1cc(C(=O)NCc2cnc(OCC(F)F)c(C)c2)cc(NC(=O)C(C)C)n1 [Example 743, N-((6-(2,2-difluoroethoxy)-5-methylpyridin-3-yl)methyl)-2-isobutyramido-6-methylisonicotinamide]
30 | > 6.00 | CC(C)C(=O)Nc1cc(C(=O)NC(C)c2ccc(OCC(F)(F)C(F)(F)F)nc2)ccn1 (single isomer, unassigned) [Example 690, 2-isobutyramido-N-(1-(6-(2,2,3,3,3-pentafluoropropoxy)pyridin-3-yl)ethyl)isonicotinamide]
31 | > 6.00 | Cc1cc(CNC(=O)c2ccnc(NC(=O)C3CC3)n2)cc(OC(F)(F)F)c1 [Example 604, 2-(cyclopropanecarboxamido)-N-(3-methyl-5-(trifluoromethoxy)benzyl)pyrimidine-4-carboxamide]
32 | > 6.00 | CC(C)C(=O)Nc1cc(C(=O)NCc2cccc(C(F)(F)F)c2F)ccn1 [Example 730, N-(2-fluoro-3-(trifluoromethyl)benzyl)-2-isobutyramidoisonicotinamide]

Source: patent US9302991B2, “Arylamide derivatives as TTX-S blockers” (RaQualia Pharma Inc., priority 2010, dated 2016)
